Test results taken from ChEMBL document CHEMBL2413072, “Synthesis and in vitro anticancer studies of novel C-2 arylidene congeners of lantadenes” (2013).

Experiments:
Type in all cases: functional
MCF7 = test: Growth inhibition of human MCF7 cells assessed as growth inhibition at 10 uM by sulforhodamine B assay; details: read-out: GI
DU-145 = test: Growth inhibition of human DU145 cells assessed as growth inhibition at 10 uM by sulforhodamine B assay; details: read-out: GI
UO-31 = test: Growth inhibition of human UO31 cells assessed as growth inhibition at 10 uM by sulforhodamine B assay; details: read-out: GI
TK-10 = test: Growth inhibition of human TK10 cells assessed as growth inhibition at 10 uM by sulforhodamine B assay; details: read-out: GI
SN12C = test: Growth inhibition of human SN12C cells assessed as growth inhibition at 10 uM by sulforhodamine B assay; details: read-out: GI
CAKI-1 = test: Growth inhibition of human CAKI-1 cells assessed as growth inhibition at 10 uM by sulforhodamine B assay; details: read-out: GI
A498 = test: Growth inhibition of human A498 cells assessed as growth inhibition at 10 uM by sulforhodamine B assay; details: read-out: GI
786-0 = test: Growth inhibition of human 786-0 cells assessed as growth inhibition at 10 uM by sulforhodamine B assay; details: read-out: GI
SK-OV-3 [1] = test: Growth inhibition of human SKOV3 cells assessed as growth inhibition at 10 uM by sulforhodamine B assay; details: read-out: GI
MOLT-4 [2] = test: Growth inhibition of human MOLT4 cells assessed as cell growth at 10 uM by sulforhodamine B assay; details: read-out: Activity
HL-60(TB) = test: Growth inhibition of human HL-60(TB) cells assessed as cell growth at 10 uM by sulforhodamine B assay; details: read-out: Activity
IGROV-1 [3] = test: Growth inhibition of human IGROV1 cells assessed as growth inhibition at 10 uM by sulforhodamine B assay; details: read-out: GI
UACC-257 = test: Growth inhibition of human UACC257 cells assessed as growth inhibition at 10 uM by sulforhodamine B assay; details: read-out: GI
SK-MEL-28 [4] = test: Growth inhibition of human SK-MEL-28 cells assessed as growth inhibition at 10 uM by sulforhodamine B assay; details: read-out: GI
MDA-MB-435 [5] = test: Growth inhibition of human MDA-MB-435 cells assessed as growth inhibition at 10 uM by sulforhodamine B assay; details: read-out: GI
M14 [6] = test: Growth inhibition of human M14 cells assessed as growth inhibition at 10 uM by sulforhodamine B assay; details: read-out: GI
SF-539 = test: Growth inhibition of human SF539 cells assessed as growth inhibition at 10 uM by sulforhodamine B assay; details: read-out: GI
SF-268 = test: Growth inhibition of human SF268 cells assessed as growth inhibition at 10 uM by sulforhodamine B assay; details: read-out: GI
SW-620 [7] = test: Growth inhibition of human SW620 cells assessed as growth inhibition at 10 uM by sulforhodamine B assay; details: read-out: GI
KM12 [8] = test: Growth inhibition of human KM12 cells assessed as growth inhibition at 10 uM by sulforhodamine B assay; details: read-out: GI
NCI-H460 = test: Growth inhibition of human NCI-H460 cells assessed as growth inhibition at 10 uM by sulforhodamine B assay; details: read-out: GI
NCI-H322M = test: Growth inhibition of human NCI-H322M cells assessed as growth inhibition at 10 uM by sulforhodamine B assay; details: read-out: GI
NCI-H226 [9] = test: Growth inhibition of human NCI-H226 cells assessed as growth inhibition at 10 uM by sulforhodamine B assay; details: read-out: GI
HOP-92 [10] = test: Growth inhibition of human HOP92 cells assessed as growth inhibition at 10 uM by sulforhodamine B assay; details: read-out: GI
HOP-62 = test: Growth inhibition of human HOP62 cells assessed as growth inhibition at 10 uM by sulforhodamine B assay; details: read-out: GI
[11] = Growth inhibition of human EKVX cells assessed as growth inhibition at 10 uM by sulforhodamine B assay; details: read-out: GI
MOLT-4 [12] = test: Growth inhibition of human MOLT4 cells assessed as growth inhibition at 10 uM by sulforhodamine B assay; details: read-out: GI
T47D = test: Growth inhibition of human T47D cells assessed as cell growth at 10 uM by sulforhodamine B assay; details: read-out: Activity
BT-549 = test: Growth inhibition of human BT549 cells assessed as cell growth at 10 uM by sulforhodamine B assay; details: read-out: Activity
MDA-MB-231 = test: Growth inhibition of human MDA-MB-231 cells assessed as cell growth at 10 uM by sulforhodamine B assay; details: read-out: Activity
ACHN = test: Growth inhibition of human ACHN cells assessed as cell growth at 10 uM by sulforhodamine B assay; details: read-out: Activity
SK-OV-3 [13] = test: Growth inhibition of human SKOV3 cells assessed as cell growth at 10 uM by sulforhodamine B assay; details: read-out: Activity
OVCAR-5 = test: Growth inhibition of human OVCAR5 cells assessed as cell growth at 10 uM by sulforhodamine B assay; details: read-out: Activity
IGROV-1 [14] = test: Growth inhibition of human IGROV1 cells assessed as cell growth at 10 uM by sulforhodamine B assay; details: read-out: Activity
SK-MEL-5 = test: Growth inhibition of human SK-MEL-5 cells assessed as cell growth at 10 uM by sulforhodamine B assay; details: read-out: Activity
SK-MEL-28 [15] = test: Growth inhibition of human SK-MEL-28 cells assessed as cell growth at 10 uM by sulforhodamine B assay; details: read-out: Activity
SK-MEL-2 = test: Growth inhibition of human SK-MEL-2 cells assessed as cell growth at 10 uM by sulforhodamine B assay; details: read-out: Activity
M14 [16] = test: Growth inhibition of human M14 cells assessed as cell growth at 10 uM by sulforhodamine B assay; details: read-out: Activity
MDA-MB-435 [17] = test: Growth inhibition of human MDA-MB-435 cells assessed as cell growth at 10 uM by sulforhodamine B assay; details: read-out: Activity
Malme-3M = test: Growth inhibition of human MALME-3M cells assessed as cell growth at 10 uM by sulforhodamine B assay; details: read-out: Activity
U-251 = test: Growth inhibition of human U251 cells assessed as cell growth at 10 uM by sulforhodamine B assay; details: read-out: Activity
SNB-19 = test: Growth inhibition of human SNB19 cells assessed as cell growth at 10 uM by sulforhodamine B assay; details: read-out: Activity
SW-620 [18] = test: Growth inhibition of human SW620 cells assessed as cell growth at 10 uM by sulforhodamine B assay; details: read-out: Activity
KM12 [19] = test: Growth inhibition of human KM12 cells assessed as cell growth at 10 uM by sulforhodamine B assay; details: read-out: Activity
HCT-15 = test: Growth inhibition of human HCT15 cells assessed as cell growth at 10 uM by sulforhodamine B assay; details: read-out: Activity
COLO 205 = test: Growth inhibition of human COLO205 cells assessed as cell growth at 10 uM by sulforhodamine B assay; details: read-out: Activity
NCI-H226 [20] = test: Growth inhibition of human NCI-H226 cells assessed as cell growth at 10 uM by sulforhodamine B assay; details: read-out: Activity
HOP-92 [21] = test: Growth inhibition of human HOP92 cells assessed as cell growth at 10 uM by sulforhodamine B assay; details: read-out: Activity
RPMI-8226 = test: Growth inhibition of human RPMI8226 cells assessed as cell growth at 10 uM by sulforhodamine B assay; details: read-out: Activity

Work on `CC1(C)C[C@@H](O)[C@]2(C(=O)O)CC[C@]3(C)C(=CC[C@@H]4[C@@]5(C)CC[C@H](O)C(C)(C)[C@@H]5CC[C@]43C)[C@@H]2C1` yielded an inhibition of growth at 10 µM (MCF7) of under 10%, an inhibition of growth at 10 µM (DU-145) of under 10% and an inhibition of growth at 10 µM (UO-31) of 13.9%. The inhibition of growth at 10 µM (TK-10) was under 10%, the inhibition of growth at 10 µM (SN12C) was 16.6% and the inhibition of growth at 10 µM (CAKI-1) was 15.2%. It also gave an inhibition of growth at 10 µM (A498) of under 10%, an inhibition of growth at 10 µM (786-0) of 13.8% and an inhibition of growth at 10 µM (SK-OV-3 [1]) of under 10%. It also gave a growth at 10 µM (MOLT-4 [2]) of 78.3%, a growth at 10 µM (HL-60(TB)) of 82% and an inhibition of growth at 10 µM (IGROV-1 [3]) of under 10%. The inhibition of growth at 10 µM (UACC-257) was under 10%, the inhibition of growth at 10 µM (SK-MEL-28 [4]) was under 10% and the inhibition of growth at 10 µM (MDA-MB-435 [5]) was under 10%. The inhibition of growth at 10 µM (M14 [6]) was under 10%, the inhibition of growth at 10 µM (SF-539) was under 10% and the inhibition of growth at 10 µM (SF-268) was under 10%. The inhibition of growth at 10 µM (SW-620 [7]) was under 10%, the inhibition of growth at 10 µM (KM12 [8]) was under 10% and the inhibition of growth at 10 µM (NCI-H460) was under 10%. For the same molecule, the inhibition of growth at 10 µM (NCI-H322M) was under 10%, the inhibition of growth at 10 µM (NCI-H226 [9]) was under 10% and the inhibition of growth at 10 µM (HOP-92 [10]) was under 10%. It also gave an inhibition of growth at 10 µM (HOP-62) of under 10%, an inhibition of growth at 10 µM [11] of under 10% and an inhibition of growth at 10 µM (MOLT-4 [12]) of 21.7%. For the same molecule, the growth at 10 µM (T47D) was 93%, the growth at 10 µM (BT-549) was 90.3% and the growth at 10 µM (MDA-MB-231) was 98.6%. For the same molecule, the growth at 10 µM (ACHN) was 102%, the growth at 10 µM (SK-OV-3 [13]) was 101% and the growth at 10 µM (OVCAR-5) was 119%. It also gave a growth at 10 µM (IGROV-1 [14]) of 97.6%, a growth at 10 µM (SK-MEL-5) of 98.7% and a growth at 10 µM (SK-MEL-28 [15]) of 95.6%. For the same molecule, the growth at 10 µM (SK-MEL-2) was 97.9%, the growth at 10 µM (M14 [16]) was 93.6% and the growth at 10 µM (MDA-MB-435 [17]) was 116%. It also gave a growth at 10 µM (Malme-3M) of 102%, a growth at 10 µM (U-251) of 91.8% and a growth at 10 µM (SNB-19) of 98.2%. For the same molecule, the growth at 10 µM (SW-620 [18]) was 109%, the growth at 10 µM (KM12 [19]) was 90.1% and the growth at 10 µM (HCT-15) was 96.5%. For the same molecule, the growth at 10 µM (COLO 205) was 109%, the growth at 10 µM (NCI-H226 [20]) was 107% and the growth at 10 µM (HOP-92 [21]) was 103%. It also gave a growth at 10 µM (RPMI-8226) of 89.3%.
